Experiments:
[1] = target: T1, MBP-FYVE (AdcA FYVE domain) (Dictyostelium discoideum, UniProt Q54CH1); assay: intrinsic tryptophan fluorescence titration; format: binding; settings: read-out: affinity
T1 sequence (Q54CH1 458-530): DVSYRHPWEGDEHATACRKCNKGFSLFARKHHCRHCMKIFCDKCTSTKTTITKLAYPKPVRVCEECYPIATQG

ArfA-His6 = target: T2, ArfA-His6 (Dictyostelium discoideum, UniProt O00909 1-182); assay: pull-down; GST-AdcAC on glutathione Sepharose beads, ArfA-His6 preincubated 1 hr at 4°C with 100 µM GDPβS or no extra nucleotide, then overnight at 4°C; 20 mM Tris pH 7.5, 25 mM NaCl, 2 mM DTT, 2 mM EDTA, 2.5 mM MgCl2, 1 mM ATP, 0.2% Triton X-100; Western blot with anti-Arf antibody; settings: both partners purified
T2 construct: Preincubated with 100 µM GDPβS, 100 µM GTPγS or no extra nucleotide before the pull-down; The nucleotide state is told by the assay; also called Dd-ArfA; ADP-ribosylation factor ArfA; source: E. coli BL21(DE3), purified (Ni-NTA agarose); not shown: His6, C-terminal, kept
T2 sequence (O00909 whole entry): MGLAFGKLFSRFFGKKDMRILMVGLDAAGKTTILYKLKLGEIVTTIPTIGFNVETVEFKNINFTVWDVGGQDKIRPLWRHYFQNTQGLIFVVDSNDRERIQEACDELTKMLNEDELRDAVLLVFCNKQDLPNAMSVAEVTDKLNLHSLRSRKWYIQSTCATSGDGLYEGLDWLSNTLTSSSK

| Kd [1] [µM] | binding result (ArfA-His6) | Molecule |
| --- | --- | --- |
| ~20 |  | O=P(O)(O)O[C@@H]1[C@H](O)[C@H](OP(=O)(O)O)[C@@H](O)[C@H](O)[C@H]1O [Ins(1,3)P2] |
|  | binds | GST-AdcAC (C domain of the arrestin core of AdcA, amino acids 311 to 459, fused to GST) (domain or fragment, Dictyostelium discoideum, UniProt Q54CH1 311-459, looked up, AdcA (arrestin-domain containing protein A) of Dictyostelium discoideum, whole protein 580 amino acids; C domain of the arrestin core, amino acids 311 to 459, in pGEX-KG; also called GST-AdcC; C-terminal domain of the AdcA arrestin core; not shown: GST, N-terminal, kept) MLTKGKLHVKTWLNKNAYFPGETLVAKMKANNTSIKPTRKISLVVHHTMQLKTRLYHRCITNAIYKQQYDGFQPCFYGKRYLPFSIPVDLKPSSSLGKHITSSYLLELECDIPMAIDLSVTLPLTLFAPQFLYSTVPSQPPGTPLPPDV |

From paper PMC3001460, “FYVE-Dependent Endosomal Targeting of an Arrestin-Related Protein in Amoeba” (PLoS ONE, 2010)
